This note sets out measurements from patent US20210318318A1, “Kinase Activity In Tumors” (Institute For Cancer Research d/b/a The Research Institute …, priority 2018, published 2021).

The subject of one assay is COV362. Nature of the assay: Short-term growth assay (CellTiter-Glo cell viability), kinase inhibitors. It is filed as cell-based, human. Conditions: increasing concentrations, Cell Titer Glo. As to the method:
Cell viability was determined by Cell Titer Glo analysis.
COV362 cells were treated with increasing concentrations of A-674563 and cell viability assessed by Cell Titer Glo according to manufacturer's instructions. Data represent the mean of six replicates.
To explore the therapeutic potential of the HGSOC kinome signature, a detailed molecular analysis of protein levels/activity, growth and survival functions was carried out in a panel of recently validated HGSOC cell lines (Coscia et al., Nat. Commun., 2016, 7, 12645) that harbor commonly encountered HGSOC mutations and genetic rearrangements (see, FIG. 5A).
For short-term growth assays, 3000-5000 cells were plated per well in 96-well plates and allowed to adhere and equilibrate overnight. Drug was added the following morning and after 120 hours of drug treatment, cell viability was assessed using the CellTiter-Glo Luminescent cell viability assay according to manufacturer (Promega). Students t tests were performed for statistical analyses and p values ≤0.05 were considered significant. For colony formation assays, cells were plated in 24-well dishes (3000-5000 cells per well) and incubated overnight before continuous drug treatment for 14 days, with drug and media replaced twice weekly. At the end of treatment, cells were rinsed with PBS and fixed with chilled methanol for 10 minutes at −20° C. Methanol was removed by aspiration, and cells were stained with 0.5% crystal violet in 20% methanol for 20 minutes at room temperature, washed with distilled water, and scanned.
For orientation: ATP-based viability assays read luminescence as a measure of living cells.

The next assay has as its target MRCKA (Homo sapiens, UniProt Q5VT25). In words: MIB/MS kinome profiling of inhibitor-treated OVSAHO cells. It is filed as cell-based. Set-up: endogenous in cells; host or cells: OVSAHO. The note with it: 2 μM, 4 hour treatment. As to the method:
OVSAHO cells were treated with inhibitors at a dose of 2 μM for 4 hours and kinase inhibition profiles determined by MIB/MS. Bar graph depicts % of kinase bound to MIBs relative to DMSO control as determined by label free quantitation.
OVSAHO cells were treated with 2 μM of inhibitor for 4 hours and analyzed by MIB/MS. Scatterplot depicts difference in kinase MIB-binding of drug treated relative to control DMSO as determined by Students T-test.
MIB-based kinome profiling was performed on several of these molecules in HGSOC cells to determine kinome-wide inhibition profiles.
Experiments using MIB/MS were performed as previously described (Duncan et al., Cell, 2012, 149, 307-321; and Kurimchak et al., Cell Reports, 2016, 16, 1273-1286). Briefly, cells or tumors were lysed on ice in buffer containing 50 mM HEPES (pH 7.5), 0.5% Triton X-100, 150 mM NaCl, 1 mM EDTA, 1 mM EGTA, 10 mM sodium fluoride, 2.5 mM sodium orthovanadate, 1× protease inhibitor cocktail (Roche), and 1% each of phosphatase inhibitor cocktails 2 and 3 (Sigma). Particulate was removed by centrifugation of lysates at 13,000 rpm for 10 minutes at 4° C. and filtration through 0.2 μm syringe filters. Protein concentrations were determined by BCA analysis (Thermo). To compare kinome signatures within and across such large sample sizes, a super-SILAC method was designed (Neubert et al., Nat. Meth., 2010, 7, 361-362) consisting of a cocktail of cancer cell lines that encompasses the activity of the “cancer kinome” to be used as a control for individual samples. Five cancer cell lines were selected from the NCI-60 panel (UACC257, MOLT4, COL0205, ACHN and PC3) that differed in their origin, gene expression patterns and mutation status. The cancer cell lines were labeled using SILAC and mixed equally providing a diverse SILAC ([^13C6,^15N4] arginine (Arg^10) and […] (Lys^8)) heavy kinome reference standard (HKS) to be used repeatedly in kinome profiling assays. An equal amount of the HKS was added to the non-labeled sample (cell, tumor or normal tissue) providing a quantitative strategy to compare kinome activity/levels across samples, amongst treatments and, importantly, across time. […]
Proteolytic peptides were resuspended in 0.1% formic acid and separated with a Thermo RSLC Ultimate 3000 on a Thermo Easy-Spray C18 PepMap 75 μm×50 cm C-18 2 μm column with a 240 minute gradient of 4-25% acetonitrile with 0.1% formic acid at 300 nL/min and 50° C. Eluted peptides were analyzed by a Thermo Q Exactive plus mass spectrometer utilizing a top 15 methodology in which the 15 most intense peptide precursor ions were subjected to fragmentation.

Chain of MRCKA (Q5VT25 whole entry): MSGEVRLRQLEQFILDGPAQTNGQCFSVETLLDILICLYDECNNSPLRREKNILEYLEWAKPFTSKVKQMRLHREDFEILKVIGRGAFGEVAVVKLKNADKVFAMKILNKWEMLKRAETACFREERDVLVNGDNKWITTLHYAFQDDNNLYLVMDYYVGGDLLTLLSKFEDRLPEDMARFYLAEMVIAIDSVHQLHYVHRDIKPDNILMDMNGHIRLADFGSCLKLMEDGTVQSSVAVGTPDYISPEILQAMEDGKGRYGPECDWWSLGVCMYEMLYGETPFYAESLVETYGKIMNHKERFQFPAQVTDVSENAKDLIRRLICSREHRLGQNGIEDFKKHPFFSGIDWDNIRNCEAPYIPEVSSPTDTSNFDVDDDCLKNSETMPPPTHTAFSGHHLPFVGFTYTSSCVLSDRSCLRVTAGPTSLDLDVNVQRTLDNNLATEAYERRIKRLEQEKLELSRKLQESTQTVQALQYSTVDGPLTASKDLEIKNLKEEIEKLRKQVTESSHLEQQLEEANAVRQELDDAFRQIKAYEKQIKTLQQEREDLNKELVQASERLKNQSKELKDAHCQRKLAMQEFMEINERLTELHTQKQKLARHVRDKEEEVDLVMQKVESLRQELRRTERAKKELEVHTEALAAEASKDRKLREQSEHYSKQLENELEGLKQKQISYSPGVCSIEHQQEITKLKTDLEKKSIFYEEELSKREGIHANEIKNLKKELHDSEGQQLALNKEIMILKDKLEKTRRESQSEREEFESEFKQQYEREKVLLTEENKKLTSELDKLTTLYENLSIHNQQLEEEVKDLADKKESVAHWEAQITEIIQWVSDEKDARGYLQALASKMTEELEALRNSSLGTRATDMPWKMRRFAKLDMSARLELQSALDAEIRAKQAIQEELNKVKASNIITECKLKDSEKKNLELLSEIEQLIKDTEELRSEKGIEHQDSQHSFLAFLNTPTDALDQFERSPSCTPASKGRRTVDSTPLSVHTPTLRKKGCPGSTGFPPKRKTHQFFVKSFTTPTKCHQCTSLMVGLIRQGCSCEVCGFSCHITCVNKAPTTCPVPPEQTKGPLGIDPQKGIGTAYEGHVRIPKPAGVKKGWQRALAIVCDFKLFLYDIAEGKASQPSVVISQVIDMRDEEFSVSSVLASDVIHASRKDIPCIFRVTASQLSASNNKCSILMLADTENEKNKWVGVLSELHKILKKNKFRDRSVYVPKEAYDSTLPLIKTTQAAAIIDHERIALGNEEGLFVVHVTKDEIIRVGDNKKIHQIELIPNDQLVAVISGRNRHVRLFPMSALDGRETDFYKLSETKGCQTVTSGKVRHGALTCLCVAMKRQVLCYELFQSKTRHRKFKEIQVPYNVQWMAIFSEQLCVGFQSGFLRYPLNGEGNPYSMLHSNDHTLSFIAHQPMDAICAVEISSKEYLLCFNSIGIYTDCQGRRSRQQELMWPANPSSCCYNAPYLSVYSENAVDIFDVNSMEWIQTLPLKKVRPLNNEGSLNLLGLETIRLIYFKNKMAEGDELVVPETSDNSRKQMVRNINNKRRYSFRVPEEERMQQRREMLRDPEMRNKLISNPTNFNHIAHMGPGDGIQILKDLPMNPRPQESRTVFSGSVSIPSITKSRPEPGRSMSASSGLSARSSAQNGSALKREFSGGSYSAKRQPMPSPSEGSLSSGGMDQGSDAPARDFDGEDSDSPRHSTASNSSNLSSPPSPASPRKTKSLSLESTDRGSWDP

`Cc1[nH]nc2ccc(-c3cncc(OC[C@@H](N)Cc4ccccc4)c3)cc12` [A-674563]: the cell viability entry in the assay with COV362 was “inhibited cell viability”. Also, on MRCKA, the “MIB-binding of MRCKA relative to DMSO” value was “greatest reduction”.
